Test results published in patent US20250197368A1 (priority 2020, published 2025).
Where two headings read alike, the source gives them in different places.

Assays:
human α2β3γ2 GABAARs = assay: In vitro electrophysiological recording assay (automated patch-clamp), α2-GABAAR relative efficacy; assay type: cell-based; conditions: % efficacy normalised to diazepam; GABA EC10-20; concentration generally >= 100 times Ki
Method: The efficacy of modulators was evaluated using the automated patch-clamp platforms QPatch16 (Sophion, Copenhagen, Denmark) or SyncroPatch 384PE (Nanion, Germany).
For QPatch electrophysiology testing L(tk^−) cells stably expressing human α1β3γ2, α2β3γ2, α3β3γ2, α5β3γ2 GABAARs were used. HEK293 cells stably expressing human α1β3γ2L, α2β3γ2L, α3β3γ2L and α5β3γ2L GABAARs were used for the SyncroPatch 384PE experiments.
All experiments were carried out at room temperature (20-22° C.) using a standard whole cell procedure and physiological solutions. Gigaseals were formed upon execution of a combined suction/voltage protocol with subsequent increased suction leading to the whole-cell configuration.
The currents recorded were acquired at either 1 KHz or 2 KHz and filtered using a Bessel filter. Whole-cell currents were measured at a holding potential of-65 mV (QPatch) or −80 mV (SyncroPatch).
For QPatch experiments, the extracellular solution contained of: 145 mM NaCl, 4 mM KCl, 1 mM MgCl2, 2 mM CaCl2), 10 mM HEPES, 10 mM D-glucose (pH 7.4), and the intracellular solution consisted of: 96 mM KCl, 28 mM CsCl, 25 mM KOH, 4.3 mM CaCl2), 1.4 mM MgCl2, 10 mM EGTA, 10 mM HEPES, 3 mM MgATP (pH 7.2). The osmolarities of the extracellular and intracellular solutions were 305 and 295 mOsm respectively.
For SyncroPatch experiments, the extracellular recording solution contained: 140 mM NaCl, 4 mM KCl, 2 mM CaCl2), 1 mM MgCl2, 10 mM HEPES, 5 mM glucose (pH 7.4 with NaOH and osmolarity of c. 300-310 mOsm). The intracellular recording solution consisted of: 90 mM KCl, 50 mM KF, 1.5 mM MgCl2, 11.1 mM EGTA and 10 mM HEPES (pH 7.2 with KOH and osmolarity of c. 300 mOsm). 2 mM of NaATP was added to the intracellular solution on the day of testing.
The effects of modulators were evaluated in the presence of a submaximal GABA concentration, giving typically less than 30% activation of the response elicited by a saturating GABA concentration. To check and ensure baseline current stability before compound addition, two to five consecutive applications of GABA EC10-20 separated by wash steps were performed before compound addition. The test compound was applied 1 min at least prior to co-application with GABA EC10-20. Following a further wash step, a saturating concentration of GABA was applied at the end of each recording, allowing the accurate evaluation for each cell of the percentage baseline activation elicited by the submaximal GABA applied.
The compounds were first dissolved in DMSO as a 10 mM stock and then further diluted to the testing concentrations so that the final DMSO concentration in the extracellular recording solution was 0.1% (QPatch) or 0.2% (SyncroPatch).
The % efficacy of modulators was determined from the GABA elicited currents recorded in the presence and absence of the test compound, using the formula:
[((compound peak current−leak)−(GABA peak current-leak))/(GABA peak current−leak)]*100,
where ‘leak’ is the leak baseline current at the holding potential, ‘compound peak current’ is the current elicited by co-application of compound and GABA, and ‘GABA peak current’ is the current elicited by GABA alone at the last GABA application before compound addition. The results were presented as ‘relative efficacy’ for each compound generally at a concentration equal or higher than 100 times their determined Ki. The relative efficacy of a compound was calculated by normalising its % efficacy to the corresponding % efficacy of diazepam that was separately determined.

[1] = molecular target: human α2β3γ2 GABAARs (benzodiazepine site) (Homo sapiens (Human), UniProt P18507+P47869); assay: In vitro radioligand binding assay ([3H]Ro15-1788 displacement), α2-GABAAR Ki
Method: The affinity (Ki) of compounds for the benzodiazepine site of human recombinant GABAARs was measured by their ability to inhibit the binding of the selective benzodiazepine antagonist [^3H]Ro15-1788 ([^3H] flumazenil).
Mouse L(tk^−) cells stably expressing human α1β3γ2, α2β3γ2, α3β3γ2, α5β3γ2 GABAARs were generated by transfection of the individual subunits in the dexamethasone-inducible expression vector pMSGneo in mouse L(tk^−) cells (Hadingham et al., 1993, Mol. Pharmacol. 43:970-975 and 1993, Mol. Pharmacol. 44:1211-1218).
L(tk^−) cells stably expressing human α1β3γ2, α2β3γ2, α3β3γ2, α5β3γ2 GABAARs were maintained in DMEM F12 medium supplemented with 10% Foetal Bovine Serum, 1% Penicillin/Streptomycin and 1 mg/mL Geneticin G418 in an incubator at 37° C. with a humidified atmosphere with 5% CO2. Dexamethasone was added to the culture medium to induce GABAAR expression.
L(tk−) cells were harvested and membranes were prepared for each receptor combination in either TE buffer (10 mM Tris·CI/0.1 mM EDTA, pH 7.5) or phosphate buffer (K2PO4 10 mM, pH 7.0) (Hadingham et al. (1992) Proc. Natl. Acad. Sci. USA; 89 (14): 6378-82). Protein concentration, receptor expression and the Kd of [^3H]Ro15-1788 were determined before Ki value of the compounds were evaluated. For Kd evaluation, saturation binding curves were obtained by incubating membrane with various concentrations of [^3H]Ro15-1788 (82.5 Ci/mM), with nonspecific binding measured in the presence of 1-3 μM TP003.
For Ki evaluation, cell membranes were incubated with 4 nM [^3H]Ro15-1788 along with a range of concentrations of test compound. Nonspecific binding was determined using 1-3 μM TP003. All incubations were performed for 1 hour at 4° C. in assay buffer. The total assay volume was 0.5 mL, containing 40 μg/well α1β3γ2, 30 μg/well α2β3γ2, 40 μg/well α3β3γ2 and 30 μg/well for α5β3γ2 of membrane protein. Incubations were terminated by filtration and washing with ice cold Tris-HCl buffer (50 mM, pH=7.4) over Whatman GF/B filters and the radioactivity of the filters was measured using liquid scintillation counting.
The % inhibition of [^3H]Ro15-1788 binding was plotted as a function of compound concentration and the IC50 calculated. From the IC50, the affinity (Ki) was calculated using the method of Cheng and Prusoff using the Kd values obtained for [^3H]Ro15-1788.

Chain of human α2β3γ2 GABAARs (benzodiazepine site) (P47869 29-451): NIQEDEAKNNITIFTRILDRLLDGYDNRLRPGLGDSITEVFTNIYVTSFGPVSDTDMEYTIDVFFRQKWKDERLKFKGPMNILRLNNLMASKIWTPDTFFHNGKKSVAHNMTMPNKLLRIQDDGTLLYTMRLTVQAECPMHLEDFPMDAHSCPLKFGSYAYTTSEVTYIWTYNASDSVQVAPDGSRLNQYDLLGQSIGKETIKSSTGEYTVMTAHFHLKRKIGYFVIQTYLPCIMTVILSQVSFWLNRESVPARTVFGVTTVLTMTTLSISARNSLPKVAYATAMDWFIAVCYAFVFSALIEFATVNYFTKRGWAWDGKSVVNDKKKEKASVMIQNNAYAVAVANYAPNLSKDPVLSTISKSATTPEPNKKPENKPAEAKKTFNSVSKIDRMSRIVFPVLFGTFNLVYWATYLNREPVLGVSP
Chain of human α2β3γ2 GABAARs (benzodiazepine site) (P28472 26-473 partner): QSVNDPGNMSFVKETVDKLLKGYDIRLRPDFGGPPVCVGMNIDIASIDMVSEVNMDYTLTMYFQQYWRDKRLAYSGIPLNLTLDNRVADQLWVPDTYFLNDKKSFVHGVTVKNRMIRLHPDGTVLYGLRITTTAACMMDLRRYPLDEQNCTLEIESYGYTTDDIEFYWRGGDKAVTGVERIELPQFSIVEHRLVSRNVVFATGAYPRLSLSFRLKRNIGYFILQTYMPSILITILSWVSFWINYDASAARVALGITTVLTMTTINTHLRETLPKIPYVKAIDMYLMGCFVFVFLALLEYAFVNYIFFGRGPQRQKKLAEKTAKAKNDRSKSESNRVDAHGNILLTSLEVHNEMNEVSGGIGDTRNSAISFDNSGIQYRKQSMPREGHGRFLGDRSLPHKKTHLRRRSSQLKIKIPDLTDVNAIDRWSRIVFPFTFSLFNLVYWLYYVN
Chain of human α2β3γ2 GABAARs (benzodiazepine site) (P18507 40-475): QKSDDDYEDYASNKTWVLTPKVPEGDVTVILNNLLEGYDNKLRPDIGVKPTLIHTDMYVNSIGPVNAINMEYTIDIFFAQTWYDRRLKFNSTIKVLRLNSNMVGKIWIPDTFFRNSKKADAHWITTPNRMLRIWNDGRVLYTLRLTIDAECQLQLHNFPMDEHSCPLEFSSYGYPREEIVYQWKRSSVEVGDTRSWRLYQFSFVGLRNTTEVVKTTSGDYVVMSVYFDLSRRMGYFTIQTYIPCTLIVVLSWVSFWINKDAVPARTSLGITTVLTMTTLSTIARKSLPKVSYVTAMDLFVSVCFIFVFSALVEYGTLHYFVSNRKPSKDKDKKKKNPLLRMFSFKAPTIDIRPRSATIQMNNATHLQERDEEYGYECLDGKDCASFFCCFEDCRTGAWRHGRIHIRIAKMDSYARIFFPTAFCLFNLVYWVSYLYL

| Compound | α2-GABAAR Relative Efficacy (vs. Diazepam) (human α2β3γ2 GABAARs) | Ki [1] [nM] | Ki ([1]; L(tk-) cell membranes, 4 nM [3H]Ro15-1788, read-out: α2-GABAAR Ki) [nM] |
| --- | --- | --- | --- |
| CCCNC(=O)c1c(N)c2cccc(-c3cnccc3OCC)c2[nH]c1=O [Example 19, 4-Amino-8-(4-ethoxypyridin-3-yl)-2-oxo-N-propyl-1,2-dihydroquinoline-3-carboxamide] | 0.23 | 21.5 |  |
| CCCNC(=O)c1c(N)c2cccc(-c3cnccc3OC(C)C)c2[nH]c1=O [Example 20, 4-Amino-8-(4-isopropoxypyridin-3-yl)-2-oxo-N-propyl-1,2-dihydroquinoline-3-carboxamide] | 0.16 |  | 245 |
| CCCNC(=O)c1c(N)c2cccc(-c3cnccc3COC)c2[nH]c1=O [Example 21, 4-Amino-8-(4-(methoxymethyl)pyridin-3-yl)-2-oxo-N-propyl-1,2-dihydroquinoline-3-carboxamide] | 0.12 | 29.8 |  |
| CCCNC(=O)c1c(N)c2cccc(-c3cncc(F)c3)c2[nH]c1=O [Example 22, 4-Amino-8-(5-fluoro-3-pyridyl)-2-oxo-N-propyl-1H-quinoline-3-carboxamide] | 0.19 | 13.6 |  |
| CCCNC(=O)c1c(N)c2cccc(-c3cncc(OC)c3C)c2[nH]c1=O [Example 24, 4-Amino-8-(5-methoxy-4-methylpyridin-3-yl)-2-oxo-N-propyl-1,2-dihydroquinoline-3-carboxamide] | 0.21 | 4.11 |  |
| CCCNC(=O)c1c(N)c2cccc(-c3cncc(OCC)c3)c2[nH]c1=O [Example 26, 4-Amino-8-(5-ethoxypyridin-3-yl)-2-oxo-N-propyl-1,2-dihydroquinoline-3-carboxamide] | 0.15 | 5.58 |  |
| CCCNC(=O)c1c(N)c2cccc(-c3cncc(OC4CC4)c3)c2[nH]c1=O [Example 28, 4-Amino-8-(5-cyclopropoxypyridin-3-yl)-2-oxo-N-propyl-1,2-dihydroquinoline-3-carboxamide] | 0.2 | 9.07 |  |
| CCCNC(=O)c1c(N)c2cccc(-c3cncc(OCc4ccc(F)cn4)c3)c2[nH]c1=O [Example 29, 4-Amino-8-(5-((5-fluoropyridin-2-yl)methoxy)pyridin-3-yl)-2-oxo-N-propyl-1,2-dihydroquinoline-3-carboxamide] | 0.22 | 6.66 |  |
| CCCNC(=O)c1c(N)c2cccc(-c3ccc(CO)nc3)c2[nH]c1=O [Example 30, 4-Amino-8-[6-(hydroxymethyl)-3-pyridyl]-2-oxo-N-propyl-1H-quinoline-3-carboxamide] | 0.43 | 4.76 |  |
| CCCNC(=O)c1c(N)c2cccc(-c3ccncc3)c2[nH]c1=O [Example 31, 4-Amino-2-oxo-N-propyl-8-(pyridin-4-yl)-1,2-dihydroquinoline-3-carboxamide] | 0.24 | 3.28 |  |
| CCCNC(=O)c1c(N)c2cccc(-c3cc(C)ncc3F)c2[nH]c1=O [Example 33, 4-Amino-8-(5-fluoro-2-methyl-4-pyridyl)-2-oxo-N-propyl-1H-quinoline-3-carboxamide] | 0.39 | 0.67 |  |
| CCCNC(=O)c1c(N)c2cccc(-c3cc(OCC)ncc3F)c2[nH]c1=O [Example 35, 4-Amino-8-(2-ethoxy-5-fluoropyridin-4-yl)-2-oxo-N-propyl-1,2-dihydroquinoline-3-carboxamide] | 0.52 | 2.45 |  |
| CCCNC(=O)c1c(N)c2cccc(-c3ccncn3)c2[nH]c1=O [Example 36, 4-Amino-2-oxo-N-propyl-8-pyrimidin-4-yl-1H-quinoline-3-carboxamide] | 0.05 | 3.69 |  |
| CCCNC(=O)c1c(N)c2cccc(-c3ncncc3OC)c2[nH]c1=O [Example 37, 4-Amino-8-(5-methoxypyrimidin-4-yl)-2-oxo-N-propyl-1H-quinoline-3-carboxamide] | 0.78 | 7.55 |  |
| CCCNC(=O)c1c(N)c2cccc(-c3ccnc(C)n3)c2[nH]c1=O [Example 38, 4-Amino-8-(2-methylpyrimidin-4-yl)-2-oxo-N-propyl-1,2-dihydroquinoline-3-carboxamide] | 0.18 | 1.09 |  |
| CCCNC(=O)c1c(N)c2cccc(-c3nc(C)ncc3C#N)c2[nH]c1=O [Example 39, 4-Amino-8-(5-cyano-2-methyl-pyrimidin-4-yl)-2-oxo-N-propyl-1H-quinoline-3-carboxamide] | −0.06 | 9.31 |  |
| CCCNC(=O)c1c(N)c2cccc(-c3nc(N)ncc3F)c2[nH]c1=O [Example 41, 4-Amino-8-(2-amino-5-fluoropyrimidin-4-yl)-2-oxo-N-propyl-1,2-dihydroquinoline-3-carboxamide] | 0.13 | 0.4 |  |
| CCCNC(=O)c1c(N)c2cccc(-c3nc(OCCOC)ncc3F)c2[nH]c1=O [Example 43, 4-Amino-8-(5-fluoro-2-(2-methoxyethoxy)pyrimidin-4-yl)-2-oxo-N-propyl-1,2-dihydroquinoline-3-carboxamide] | 0.14 | 1.47 |  |
| CCCNC(=O)c1c(N)c2cccc(-c3cncnc3OC)c2[nH]c1=O [Example 44, 4-Amino-8-(4-methoxypyrimidin-5-yl)-2-oxo-N-propyl-1H-quinoline-3-carboxamide] | 0.30 | 18.6 |  |
| CCCNC(=O)c1c(N)c2cccc(-c3cnccn3)c2[nH]c1=O [Example 45, 4-Amino-2-oxo-N-propyl-8-(pyrazin-2-yl)-1,2-dihydroquinoline-3-carboxamide] | 0.11 | 5.04 |  |
